A word on the IC50: it is the concentration at which inhibition is half-maximal. Low values mean greater potency, high ones weaker potency.

This assay addresses human Nav1.8 (Homo sapiens (Human), UniProt Q9Y5Y9). Description: Nav1.8 Qube® Assay (automated 384-well patch-clamp). Format: cell-based. The following applies: human Nav1.8 channels stably expressed in HEK 293 cells. From the text: Qube® Assay Experimental Procedure
(In general: In patch-clamp work, channel activity is measured electrically.)

human Nav1.8, sequence (Q9Y5Y9 whole entry): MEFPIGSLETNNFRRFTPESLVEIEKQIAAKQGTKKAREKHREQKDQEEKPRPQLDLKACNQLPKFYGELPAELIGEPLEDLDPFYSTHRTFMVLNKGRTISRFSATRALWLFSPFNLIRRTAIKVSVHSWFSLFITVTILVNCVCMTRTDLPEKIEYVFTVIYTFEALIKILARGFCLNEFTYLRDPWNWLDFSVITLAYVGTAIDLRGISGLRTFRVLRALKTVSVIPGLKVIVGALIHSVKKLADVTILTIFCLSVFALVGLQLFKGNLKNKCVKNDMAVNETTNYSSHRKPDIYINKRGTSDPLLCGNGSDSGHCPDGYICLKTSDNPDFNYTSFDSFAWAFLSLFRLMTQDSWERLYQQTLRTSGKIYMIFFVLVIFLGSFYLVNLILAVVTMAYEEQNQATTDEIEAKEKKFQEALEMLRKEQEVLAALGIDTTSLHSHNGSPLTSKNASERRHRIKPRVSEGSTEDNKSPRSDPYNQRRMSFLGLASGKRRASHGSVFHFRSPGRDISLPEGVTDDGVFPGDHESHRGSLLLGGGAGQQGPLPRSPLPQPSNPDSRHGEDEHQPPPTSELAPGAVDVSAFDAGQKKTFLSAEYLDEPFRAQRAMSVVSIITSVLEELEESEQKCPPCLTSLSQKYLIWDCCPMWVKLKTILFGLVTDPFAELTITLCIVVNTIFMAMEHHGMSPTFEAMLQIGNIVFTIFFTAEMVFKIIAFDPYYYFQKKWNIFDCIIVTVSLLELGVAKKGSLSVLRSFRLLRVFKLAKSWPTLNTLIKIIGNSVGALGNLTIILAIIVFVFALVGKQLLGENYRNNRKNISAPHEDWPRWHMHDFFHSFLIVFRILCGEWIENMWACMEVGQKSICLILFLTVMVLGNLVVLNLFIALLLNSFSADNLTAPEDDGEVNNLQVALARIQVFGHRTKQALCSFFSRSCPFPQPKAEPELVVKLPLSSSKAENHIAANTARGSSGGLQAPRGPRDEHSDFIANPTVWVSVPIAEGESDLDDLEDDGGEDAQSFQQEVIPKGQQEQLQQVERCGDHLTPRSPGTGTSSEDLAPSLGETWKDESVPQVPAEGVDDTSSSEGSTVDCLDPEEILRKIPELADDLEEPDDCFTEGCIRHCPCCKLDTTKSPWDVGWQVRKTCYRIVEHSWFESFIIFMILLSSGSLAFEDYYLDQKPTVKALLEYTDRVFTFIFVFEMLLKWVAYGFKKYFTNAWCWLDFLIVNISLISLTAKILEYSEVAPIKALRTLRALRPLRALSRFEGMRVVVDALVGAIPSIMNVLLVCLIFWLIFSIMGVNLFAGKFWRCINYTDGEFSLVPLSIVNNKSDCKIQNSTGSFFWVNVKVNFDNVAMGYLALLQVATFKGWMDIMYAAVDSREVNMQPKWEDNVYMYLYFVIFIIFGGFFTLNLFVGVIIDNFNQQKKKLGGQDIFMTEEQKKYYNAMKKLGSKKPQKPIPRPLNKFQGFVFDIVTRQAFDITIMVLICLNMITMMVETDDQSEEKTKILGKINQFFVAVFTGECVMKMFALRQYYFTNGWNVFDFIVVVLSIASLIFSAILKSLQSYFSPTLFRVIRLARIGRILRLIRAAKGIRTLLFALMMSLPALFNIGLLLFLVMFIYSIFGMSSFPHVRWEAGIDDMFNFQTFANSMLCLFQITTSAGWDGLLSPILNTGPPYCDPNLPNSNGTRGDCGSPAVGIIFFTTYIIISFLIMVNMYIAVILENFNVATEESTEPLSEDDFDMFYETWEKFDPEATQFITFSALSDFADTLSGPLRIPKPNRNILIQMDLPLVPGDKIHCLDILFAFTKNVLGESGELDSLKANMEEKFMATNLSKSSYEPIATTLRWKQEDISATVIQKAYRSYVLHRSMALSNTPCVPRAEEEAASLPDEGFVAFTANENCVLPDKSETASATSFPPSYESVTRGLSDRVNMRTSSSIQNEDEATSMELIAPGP

Molecule `O=C1NC[C@@H](C(=O)NC(c2ccc(Cl)cc2)c2ccc(OCC(F)(F)F)nn2)O1` (single isomer, unassigned) [Example 73B, (S)-N-((R or S)-(4-chlorophenyl)(6-(2,2,2-trifluoroethoxy)pyridazin-3-yl)methyl)-2-oxooxazolidine-5-carboxamide] registered an IC50 of 80 nM. With `O=C1NC[C@@H](C(=O)NC(c2ccc(OC(F)(F)F)c(Cl)c2)c2coc(C(F)(F)F)n2)O1` (single isomer, unassigned) [Example 51B, (S)-N-((R or S)-(3-chloro-4-(trifluoro-methoxy)phenyl)(2-(trifluoromethyl)oxazol-4-yl)methyl)-2-oxooxazolidine-5-carboxamide] the figure was 3.7 nM; with `O=C1NC[C@@H](C(=O)NC(c2ccc(Cl)cc2)c2nc(C(F)(F)F)cs2)O1` (single isomer, unassigned) [Example 12B, (S)-N-((R or S)-(4-chlorophenyl)(4-(trifluoromethyl)thiazol-2-yl)methyl)-2-oxooxazolidine-5-carboxamide], 323 nM.

Consider `N#Cc1cc(C(NC(=O)[C@@H]2CNC(=O)O2)c2ccc(F)c(Cl)c2)ccc1F` (single isomer, unassigned) [Example 69, (S)-N-((R or S)-(3-chloro-4-fluorophenyl)(3-cyano-4-fluorophenyl)methyl)-2-oxooxazolidine-5-carboxamide], for which inhibition was half-maximal at 16 nM (IC50). As to `CC(C)c1cccc(C(NC(=O)[C@@H]2CNC(=O)O2)c2ccc(Cl)cc2)c1` (single isomer, unassigned) [Example 32B, (S)-N-((R or S)-(4-chlorophenyl)(3-isopropylphenyl)methyl)-2-oxooxazolidine-5-carboxamide], the midpoint of inhibition, the IC50, lay at 12 nM. As for `COc1cc(Cl)ccc1C(NC(=O)[C@@H]1CNC(=O)O1)c1ccc(F)cc1` (single isomer, unassigned) [Example 55A, (S)—N—((R or S)-(4-chloro-2-methoxyphenyl)(4-fluorophenyl)-methyl)-2-oxooxazolidine-5-carboxamide], the figure is 19 nM; as for `O=C1NC[C@@H](C(=O)NC(c2ccc(Cl)cc2)c2cccc3ccccc23)O1` (stereo partly drawn) [Example 30, (5S)-N-((4-chlorophenyl) (naphthalen-1-yl)methyl)-2-oxooxazolidine-5-carboxamide], 2.4 nM; as for `O=C1NC[C@@H](C(=O)NC(c2ccc(F)c(Cl)c2F)[C@@H]2CC[C@@H](C(F)(F)F)CO2)O1` (single isomer, unassigned) [Example 9D], 2420 nM. As for `O=C1NC[C@@H](C(=O)NC(c2ccc(Cl)cc2)C2CCN(CC(F)(F)F)CC2)O1` (single isomer, unassigned) [Example 42A, (S)-N-((R or S)-(4-chlorophenyl)(1-(2,2,2-trifluoroethyl)piperidin-4-yl)methyl)-2-oxooxazolidine-5-carboxamide], the figure is 936 nM; as for `Cc1cc(C(NC(=O)[C@@H]2CNC(=O)O2)c2ccc(Cl)cc2)ccc1Cl` (single isomer, unassigned) [Example 46B, (S)-N-((R or S)-(4-chloro-3-methylphenyl)(4-chlorophenyl)methyl)-2-oxooxazolidine-5-carboxamide], 1.8 nM; as for `O=C1NC[C@@H](C(=O)NC(c2ccc(F)c(Cl)c2)c2ccn(C(F)F)n2)O1` (single isomer, unassigned) [Example 60B, (S)-N-((R or S)-(3-chloro-4-fluorophenyl)(1-(difluoromethyl)-1H-pyrazol-3-yl)methyl)-2-oxooxazolidine-5-carboxamide], 124 nM. As for `O=C1NC[C@@H](C(=O)NC(CC2CCCCC2)c2ccc(F)c(Cl)c2F)O1` (stereo partly drawn) [Example 67, (S)-N-(1-(3-chloro-2,4-difluorophenyl)-2-cyclohexylethyl)-2-oxooxazolidine-5-carboxamide], the IC50 is 21 nM. Turning to `O=C1NC[C@@H](C(=O)NC(c2ccc(F)c(Cl)c2)c2cc(C(F)(F)F)[nH]n2)O1` (single isomer, unassigned) [Example 5B, (S)—N—((R or S)-(3-chloro-4-fluorophenyl)(5-(trifluoromethyl)-1H-pyrazol-3-yl)methyl)-2-oxooxazolidine-5-carboxamide], 265 nM corresponded to half-maximal inhibition (IC50).

Molecule `COc1cc(Cl)ccc1C(NC(=O)[C@@H]1CNC(=O)O1)c1ccc(F)cc1` (single isomer, unassigned) [Example 55B, (S)—N—((R or S)-(4-chloro-2-methoxyphenyl)(4-fluorophenyl)methyl)-2-oxooxazolidine-5-carboxamide] registered an IC50 of 4.7 nM.

`O=C1NC[C@@H](C(=O)NC(c2ccc(Cl)cc2)c2ccc(F)c(C(F)F)n2)O1` (single isomer, unassigned) [Example 16A] showed a 50% inhibitory concentration (IC50) of 239 nM. Regarding `O=C1NC[C@@H](C(=O)NC(c2ccc(F)c(Cl)c2F)[C@@H]2CC[C@@H](C(F)(F)F)CO2)O1` (single isomer, unassigned) [Example 9A], 7.3 nM corresponded to half-maximal inhibition (IC50).

Regarding `O=C1NC[C@@H](C(=O)NC(c2ccc(F)c(Cl)c2)c2ccn(C(F)F)n2)O1` (single isomer, unassigned) [Example 60A, (S)-N-((R or S)-(3-chloro-4-fluorophenyl)(1-(difluoromethyl)-1H-pyrazol-3-yl)methyl)-2-oxooxazolidine-5-carboxamide], half-maximal inhibition (IC50) required 231 nM.

For `O=C1NC[C@@H](C(=O)NC(c2ccc(Cl)cc2)c2coc(C(F)(F)F)n2)O1` (single isomer, unassigned) [Example 18A, (S)-N-((R or S)-(4-chlorophenyl)(2-(trifluoromethyl)oxazol-4-yl)methyl)-2-oxooxazolidine-5-carboxamide], the half-inhibitory concentration (IC50) amounted to 31 nM. As to `O=C1NC[C@@H](C(=O)NC(c2ccc(Cl)cc2)c2ccc(F)cn2)O1` (single isomer, unassigned) [Example 23B, (S)-N-((R or S)-(4-chlorophenyl)(5-fluoropyridin-2-yl)methyl)-2-oxooxazolidine-5-carboxamide], it took 233 nM to reach half-maximal inhibition (IC50). With `O=C1NC[C@@H](C(=O)NC(c2ccc(Cl)cc2)c2ccc(Cl)cc2OC(F)(F)F)O1` (single isomer, unassigned) [Example 47B, (S)-N-((R or S)-(4-chloro-2-(trifluoromethoxy)phenyl)(4-chlorophenyl)-methyl)-2-oxooxazolidine-5-carboxamide] the figure was 17 nM; with `Cn1nc(C(F)(F)F)cc1C(NC(=O)[C@@H]1CNC(=O)O1)c1ccc(F)c(Cl)c1` (single isomer, unassigned) [Example 61A, (S)-N-((R or S)-(3-chloro-4-fluorophenyl)(1-methyl-3-(trifluoromethyl)-1H-pyrazol-5-yl)methyl)-2-oxooxazolidine-5-carboxamide], 4.6 nM. As for `O=C1NC[C@@H](C(=O)NC(c2ccc(F)c(Cl)c2)c2ccc(Cl)cn2)O1` (single isomer, unassigned) [Example 14A, (S)-N-((R or S)-(3-chloro-4-fluorophenyl)(5-chloropyridin-2-yl)methyl)-2-oxooxazolidine-5-carboxamide], the half-inhibitory concentration (IC50) worked out at 21 nM. Turning to `O=C1NC[C@@H](C(=O)NC(c2ccccc2)c2cc(Cl)cc(Cl)c2)O1` (stereo partly drawn) [Example 20, (5S)-N-((3,5-dichlorophenyl) (phenyl)methyl)-2-oxooxazolidine-5-carboxamide], it took 32 nM to reach half-maximal inhibition (IC50). `O=C1NC[C@@H](C(=O)NC(c2ccc(Cl)cc2)C23C4C5C6C4C2C6C53)O1` (single isomer, unassigned) [Example 56B, (S)—N—((R or S)-(4-chlorophenyl)(cuban-1-yl)methyl)-2-oxooxazolidine-5-carboxamide] had a half-maximal inhibitory concentration (IC50) of 289 nM. Regarding `O=C1NC[C@@H](C(=O)NC(c2cccc(Cl)c2)C2CC2c2ccccc2)O1` (single isomer, unassigned) [Example 26A, (5S)-N-((R or S)-(3-chlorophenyl) ((cis or trans)-2-phenylcyclopropyl)methyl)-2-oxooxazolidine-5-carboxamide], 326 nM corresponded to half-maximal inhibition (IC50). Consider `O=C1NC[C@@H](C(=O)NC(c2ccc(Cl)cc2)c2ccnc(C(F)(F)F)n2)O1` (single isomer, unassigned) [Example 11B, (S)-N-((R or S)-(4-chlorophenyl)(2-(trifluoromethyl)pyrimidin-4-yl)methyl)-2-oxooxazolidine-5-carboxamide], for which the IC50 came to 399 nM. As for `COc1ncccc1C(NC(=O)[C@@H]1CNC(=O)O1)c1ccc(F)c(Cl)c1` (single isomer, unassigned) [Example 58B, (S)-N-((R or S)-(3-chloro-4-fluorophenyl)(2-methoxypyridin-3-yl)methyl)-2-oxooxazolidine-5-carboxamide], the figure is 24 nM; as for `O=C1NC[C@@H](C(=O)NC(c2ccc(Cl)c(C(F)(F)F)n2)C2CCC(F)(F)CC2)O1` (single isomer, unassigned) [Example 63B, (S)-N-((R or S)-(5-chloro-6-(trifluoromethyl)pyridin-2-yl)(4,4-difluoro-cyclohexyl)methyl)-2-oxooxazolidine-5-carboxamide], 574 nM. The molecule `O=C1NC[C@@H](C(=O)NC(c2ccc(Cl)cc2)c2cccc(C3CC3)c2)O1` (single isomer, unassigned) [Example 33B, (S)-N-((R or S)-(4-chlorophenyl)(3-cyclopropylphenyl)methyl)-2-oxooxazolidine-5-carboxamide] returned a half-maximal inhibitory concentration (IC50) of 9.4 nM. With `CC(NC(=O)[C@@H]1CNC(=O)O1)(c1ccc(Cl)cc1)c1ccc(Cl)cc1` [Example 41, (S)-N-(1,1-bis(4-chlorophenyl)ethyl)-2-oxooxazolidine-5-carboxamide] the figure was 378 nM; with `O=C1NC[C@@H](C(=O)NC(c2ccc(OCC(F)(F)F)nc2)c2ccc(F)c(Cl)c2F)O1` (single isomer, unassigned) [Example 50B, (S)—N—((R or S)-(3-chloro-2,4-difluorophenyl)(6-(2,2,2-trifluoroethoxy)pyridin-3-yl)methyl)-2-oxooxazolidine-5-carboxamide], 48 nM; with `O=C1NC[C@@H](C(=O)NC(c2ccc(F)c(Cl)c2)c2cccc(C(F)(F)F)n2)O1` (single isomer, unassigned) [Example 49A, (S)-N-((R or S)-(3-chloro-4-fluorophenyl)(6-(trifluoromethyl)pyridin-2-yl)methyl)-2-oxooxazolidine-5-carboxamide], 8.8 nM.

For the origin of these results see patent US12516046B2, “2-oxo-oxazolidine-5-carboxamides as NAV1.8 inhibitors” (Merck Sharp & Dohme LLC, priority 2020, dated 2026).
